Test results published in the METLIN SMRT retention time set (Domingo-Almenara et al. 2019).

Assay: gradient 5% acetonitrile 3 min, to 50% in 2 min, to 85% in 15 min, held 3 min, 100 µL/min
Conditions: column: Zorbax Extend-C18 2.1 x 50 mm; eluents: water / acetonitrile, 0.1% formic acid
Outline: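 Over 3 months, pure standards in mixtures of ~100 molecules were run by HPLC coupled to a quadrupole time-of-flight mass spectrometer in positive and negative ionization mode. The column was a Zorbax Extend-C18 (2.1 × 50 mm, 1.8 μm) at 100 μL/min, eluted with water and acetonitrile each holding 0.1% formic acid, with 40 μL dead and 900 μL dwell volumes. Retention time was determined from adduct peaks chosen by software and checked manually.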
For C/C(=C\c1csc(C)n1)C1C[C@@H]2O[C@]2(C)CCC[C@H](C)[C@H](O)[C@@H](C)C(=O)C(C)(C)[C@@H](O)CC(=O)N1 (some centres undefined), the RP-LC retention time was 668 s.
In the case of CCOc1cc(-c2nc(C3CC(=O)N(c4ccc(CC)cc4)C3)no2)cc(OCC)c1OCC (centres undefined), the RP-LC retention time is reported as 1300 s.
With CCn1cc(C(CNC(=O)Nc2ccc(OC)cc2OC)c2cccnc2)c2ccccc21 (centres undefined) the RP-LC retention time was 700 s.
For CCN1CCN(C(=O)c2cc(-c3ccc(C)cc3)cn2CC)CC1, the RP-LC retention time was 678 s.
In the case of CN(Cc1nc2ccccc2n1Cc1ccc(F)cc1)C(=O)c1ccco1, the RP-LC retention time is reported as 714 s.
For Cc1ccc(C)c(-c2nc(NC(=O)c3cc(C)on3)sc2C)c1, the RP-LC retention time was 1110 s.
Work on CCOc1ccc(N2C=C(C(=O)N3CCCC3)S(=O)(=O)c3ccc(Cl)cc32)cc1 yielded an RP-LC retention time of 930 s.
Work on CCn1c(=O)c2ccn(CC(=O)Nc3cc(C)ccn3)c2n(CC)c1=O yielded an RP-LC retention time of 644 s.
With CCOC(=O)C1CCN(C(=O)COc2ccc(NC(C)=O)cn2)CC1 the RP-LC retention time was 633 s.
CCC(=O)Nc1ccc(CCc2nc3ccc(C(=O)NC(C)CCc4ccccc4)cc3[nH]2)cc1 (centres undefined) gave an RP-LC retention time of 714 s.
In the case of Cc1ccc(-n2nc(N3CCN(C(=O)Nc4ccccc4)CC3)ccc2=O)cc1, the RP-LC retention time is reported as 780 s.
COc1ccc(NC(C)=O)cc1NS(=O)(=O)C1CC1 showed an RP-LC retention time of 607 s.
COc1ccccc1C1(CNS(=O)(=O)c2cccc(Cl)c2C)CCOCC1 showed an RP-LC retention time of 969 s.
Cc1ccc(N2CCC(NC(=O)CC3CCCC3)C2=O)cc1 (centres undefined) showed an RP-LC retention time of 839 s.
In the case of O=C(NCC1COc2ccccc2O1)C(=O)Nc1cccc(Br)c1 (centres undefined), the RP-LC retention time is reported as 1030 s.
O=C(c1cnccn1)N1CCc2nn(CC3CC3)c(=O)n2CC1 gave an RP-LC retention time of 598 s.
Work on CCCN(CCC)S(=O)(=O)c1ccc(Br)c(OC)c1 yielded an RP-LC retention time of 1060 s.
With Cc1cc(C(=O)Nc2ccccc2Cl)nc2cc(-c3ccco3)nn12 the RP-LC retention time was 1280 s.
Cc1ccc(C)c(S(=O)(=O)N2CCc3nc(-c4ccc(F)cc4)ncc3C2)c1 gave an RP-LC retention time of 1200 s.
In the case of COc1ccc(NC(=O)Cn2cnc3nc(N4CCC(C(=O)NC5CC5)CC4)sc3c2=O)cc1, the RP-LC retention time is reported as 681 s.
In the case of COCCNC(=O)c1cn(C)c2ncccc12, the RP-LC retention time is reported as 582 s.
COc1ccc(C(=O)Nc2nc(-c3ccccc3)cs2)cc1OC gave an RP-LC retention time of 961 s.
CCCNC(=O)c1ccc2nc(CCc3ccc(NC(=O)CC)cc3)[nH]c2c1 gave an RP-LC retention time of 608 s.
For O=C(Cn1nc(N2CCCCCC2)c2ccccc2c1=O)Nc1ccc2c(c1)OCCO2, the RP-LC retention time was 1010 s.
O=C(Nc1cc(F)ccc1Cl)c1ccc2c(c1)nnn2CCN1CCOCC1 showed an RP-LC retention time of 633 s.
Compound CC(C)c1ccc(S(=O)(=O)N2CCc3c(c(-c4nnc(-c5ccc(F)cc5)o4)nn3C)C2)cc1 has an RP-LC retention time of 1100 s.
In the case of Cn1nc(C2CCCN2C(=O)C2(c3ccccc3)CC2)n(Cc2ccccc2)c1=O (centres undefined), the RP-LC retention time is reported as 830 s.
For CCn1nccc1C(=O)N1CCCC1c1ccc(OC)cc1 (centres undefined), the RP-LC retention time was 772 s.
Compound Fc1ccc(-c2nc(CC3CCNC3)no2)cc1 (centres undefined) has an RP-LC retention time of 621 s.
Compound CC1Cc2nc(SCC(=O)NCC3CCCO3)n(-c3ccc(F)cc3)c(=O)c2S1 (centres undefined) has an RP-LC retention time of 728 s.
For CC(=O)c1cccc(NC(=O)CN2C(=O)CC(c3ccccc3)=Nc3cccnc32)c1, the RP-LC retention time was 854 s.
For CC(=O)OCCN1c2ccccc2Sc2cnccc21, the RP-LC retention time was 663 s.
With O=C(NCCc1ccncc1)C1CCCN(c2nnc3ccc(C(F)(F)F)cn23)C1 (centres undefined) the RP-LC retention time was 537 s.
Cc1ccccc1CN1CCC2(CC1)CC(O)(c1ccccn1)CCO2 (centres undefined) gave an RP-LC retention time of 570 s.
With CCc1nc2cc(-c3noc(Cc4cc(OC)cc(OC)c4)n3)ccc2o1 the RP-LC retention time was 1080 s.
Cc1oc(-c2[nH]ncc2C(=O)N(C)C)cc1S(=O)(=O)Nc1cc(F)cc(F)c1 showed an RP-LC retention time of 890 s.
COC(=O)c1cnc(N2CCN(C3CCCCC3)CC2)c2ccccc12 gave an RP-LC retention time of 683 s.
With CCN1C(=O)c2cccnc2Sc2cc(NC(=O)Cc3ccccc3C)ccc21 the RP-LC retention time was 898 s.
Compound COc1ccc(NC(=O)Cn2c(=O)c3cc(-c4ccco4)nn3c3ncccc32)c(OC)c1 has an RP-LC retention time of 797 s.
COc1cccc(S(=O)(=O)N2CCN(c3cc(C)nc(N4CCOCC4)n3)CC2)c1 gave an RP-LC retention time of 668 s.
With CCC(=O)N1CCc2cc(N3CC(C(=O)NCc4ccncc4)CC3=O)ccc21 (centres undefined) the RP-LC retention time was 578 s.
COCC(C)Nc1ncnc2c1cnn2-c1cccc(Cl)c1 (centres undefined) gave an RP-LC retention time of 925 s.
For Cc1cccc(CNC(=O)Cn2nc(C(=O)N3CCCC3)c3ccccc32)c1, the RP-LC retention time was 828 s.
Work on O=S(=O)(c1ccc2c(c1)OCCO2)N1CC[C@@H]2COCCN(Cc3cccnc3)[C@@H]2C1 yielded an RP-LC retention time of 629 s.
Work on Cc1nc(-c2csc(S(=O)(=O)N3CCC(C(=O)NCCc4ccccc4)CC3)c2)no1 yielded an RP-LC retention time of 1060 s.
Work on COCCN(Cc1ccc(C(C)C)cc1)Cc1cc(=O)n2cc(C)ccc2n1 yielded an RP-LC retention time of 719 s.
CC1=C(c2ccc(F)cc2)S(=O)(=O)N=C1N1CCCN(C(=O)CC(C)(C)C)CC1 gave an RP-LC retention time of 856 s.
In the case of COc1ccc(-n2ncc3c(=O)n(Cc4nc(-c5cc(OC)c(OC)c(OC)c5)no4)cnc32)cc1, the RP-LC retention time is reported as 927 s.
In the case of Cc1cc2c(cc(C(=O)NCCc3ccccc3)n2C)s1, the RP-LC retention time is reported as 1040 s.
With CCOc1ccccc1C(=O)Nc1ccc2c(c1)Sc1ncccc1C(=O)N2C the RP-LC retention time was 806 s.
In the case of O=C(Nc1ccc2c(c1)OCCO2)C1CCCN(c2ccnc(-c3ccc(F)cc3)n2)C1 (centres undefined), the RP-LC retention time is reported as 691 s.
With O=C(CSc1nnc(Cc2ccccc2)o1)N1CCOCC1 the RP-LC retention time was 636 s.
CCn1ccc2c(cc(C(=O)NCc3ccc4c(c3)OCO4)n2C)c1=O gave an RP-LC retention time of 676 s.
In the case of COc1ccc(NC(=O)CCc2cccc3[nH]ccc23)cc1OC, the RP-LC retention time is reported as 755 s.
O=C(COc1ccc(F)c(F)c1)NCC1CCOCC1 gave an RP-LC retention time of 719 s.
For CC(NC(=O)CCCc1ccccc1)C(=O)N1CCN(c2ccccn2)CC1 (centres undefined), the RP-LC retention time was 626 s.
For O=C(NCc1cccnc1)C1CN(S(=O)(=O)c2cccnc2)CC12CCCCC2 (centres undefined), the RP-LC retention time was 595 s.
Compound Cc1nc(N2CCOCC2)c2c(C(=O)N3CCN(c4cccc(Cl)c4)CC3)c(C)oc2n1 has an RP-LC retention time of 917 s.
O=C(NCC1CCCO1)C1CCN(c2ncnc3c2oc2ccccc23)CC1 (centres undefined) gave an RP-LC retention time of 618 s.
With CCCCS(=O)(=O)N1C[C@@H](COC)[C@H](C(=O)NC)C1 the RP-LC retention time was 626 s.
For COC(=O)CNC(=O)N1CCC2(CC1)Nc1cc(F)ccc1-n1cccc12, the RP-LC retention time was 816 s.
Work on O=C(Nc1nc(CCC(=O)N2CCn3c2nc2ccccc23)cs1)c1ccc(F)cc1 yielded an RP-LC retention time of 721 s.
With COc1ccc(OC)c(S(=O)(=O)N2CCOCCNC(=O)[C@H]3CCCC[C@H]32)c1 the RP-LC retention time was 772 s.
For O=S(=O)(c1ccccc1)N1CC[C@@H]2COCCN(Cc3ccccc3)[C@@H]2C1, the RP-LC retention time was 675 s.
Compound Cc1ccc(-c2cc3c4nnc(SCC(=O)Nc5cccc(C(F)(F)F)c5)n4ccn3n2)cc1 has an RP-LC retention time of 1040 s.
Cc1ccc(CNC(=O)N2CCC3(CC2)NC(=O)c2ccccc2O3)cc1 gave an RP-LC retention time of 757 s.
C=CCN1C(=O)COc2ccc(-c3csc(NC(=O)c4cccc(C)c4)n3)cc21 gave an RP-LC retention time of 1060 s.
Work on COc1ccc(N2CC(c3nc(-c4ccc5c(c4)OCO5)no3)CC2=O)cc1OC (centres undefined) yielded an RP-LC retention time of 824 s.
Work on Cc1ccc(-c2nnc(C)c(NCCN3CCOCC3)n2)cc1 yielded an RP-LC retention time of 547 s.
CCC(C(=O)N1CCC(C)CC1)n1cnc2onc(-c3ccc(Cl)cc3)c2c1=O (centres undefined) showed an RP-LC retention time of 1280 s.
Work on COc1ccccc1NC(=O)C1c2cc(OC)c(OC)cc2C(=O)N2CCc3ccccc3C12 (centres undefined) yielded an RP-LC retention time of 862 s.
CC(=O)N1CCc2cc(N3CC(C(=O)Nc4ccccc4C(F)(F)F)CC3=O)ccc21 (centres undefined) gave an RP-LC retention time of 710 s.
Cc1ccc(F)cc1NC(=O)Cn1c(=O)nc(N2CCCCC2)c2ccccc21 showed an RP-LC retention time of 841 s.
Work on CN(C)c1ccc(CCCNC(=O)Cc2ccc(Cl)cc2)cc1 yielded an RP-LC retention time of 604 s.
In the case of C=CCN1C(=O)COc2ccc(-c3nc(NC(=O)CCc4ccccc4)sc3C)cc21, the RP-LC retention time is reported as 1050 s.
Work on Cc1noc(C)c1-c1ccc(S(=O)(=O)N2CCN(C)CC2)cc1 yielded an RP-LC retention time of 610 s.
CCn1cc(C)c(C(=O)O)c1CC(=O)N(C)Cc1ccccc1 showed an RP-LC retention time of 772 s.
Compound CCOc1nc2ccccc2nc1N1CCCC(C(=O)Nc2ccc(Br)cc2F)C1 (centres undefined) has an RP-LC retention time of 1390 s.
CCOC(=O)c1cc(S(=O)(=O)N2CCCC2C(=O)NC2CCCCCC2)cn1C (centres undefined) showed an RP-LC retention time of 968 s.
With CCCOc1cccc(C(=O)N(Cc2ccc(Br)o2)C2CCS(=O)(=O)C2)c1 (centres undefined) the RP-LC retention time was 1010 s.
Compound CCN(CC)CCNC(=O)CCC(=O)N1CCc2c(c(C(=O)N3CCCCC3)nn2C)C1 has an RP-LC retention time of 573 s.
Cc1csc(-c2cc(S(=O)(=O)N(Cc3cccs3)C3CCCC3)c(C)s2)n1 showed an RP-LC retention time of 1320 s.
With Cc1ccc2c(c1)OCC(=O)N2Cc1nc(-c2cccc(Cl)c2)no1 the RP-LC retention time was 1160 s.
Compound CCn1cc(CCNC(=O)c2ccccc2Cl)c2cccnc21 has an RP-LC retention time of 691 s.
For CS(=O)(=O)N1CCC(OC2CCN(C(=O)Nc3cccc(Cl)c3F)CC2)CC1, the RP-LC retention time was 787 s.
Compound c1ccc(CN2CCc3c(sc4ncnc(N5CCOCC5)c34)C2)cc1 has an RP-LC retention time of 740 s.
Compound CCOc1ccc(NC(=O)c2cn(-c3cc(N4CCC(C)CC4)ncn3)cn2)cc1 has an RP-LC retention time of 1110 s.
COCc1noc([C@@H]2CC(F)(F)CN2C(=O)c2c(C)noc2C)n1 showed an RP-LC retention time of 705 s.
With CN(C)C(=O)c1cn(C2CN(C(=O)c3cccc4[nH]ccc34)C2)nn1 the RP-LC retention time was 608 s.
